# Data from patent US7820679B2, “N-(-3-methoxy-5-methylpyrazin-2-yl)-2-(4-′1,3,4-oxadiazol-2-yl-phenyl)pyridine-3 sulphonamide as an anticancer agent” (AstraZeneca AB, priority 2002, dated 2010).
# Values joined by “and” are separate entries in the source; they are usually repeats but may differ in a detail not shown here. Identical values can stand only once. Where no end group is shown, it is not given here.
# Tests used:
# [1] = target: T1, Human recombinant ETB receptor (Homo sapiens, UniProt P24530); test: Endothelin human receptor binding assay (125I-ET-1 competition), ETB; settings: at a concentration of 10^-4 M, n=3
# T1 construct: expressed in transfected cells; host or cells: mouse erythroleukaemic (MEL) cells, membrane preparation
# T1 sequence (P24530 27-442): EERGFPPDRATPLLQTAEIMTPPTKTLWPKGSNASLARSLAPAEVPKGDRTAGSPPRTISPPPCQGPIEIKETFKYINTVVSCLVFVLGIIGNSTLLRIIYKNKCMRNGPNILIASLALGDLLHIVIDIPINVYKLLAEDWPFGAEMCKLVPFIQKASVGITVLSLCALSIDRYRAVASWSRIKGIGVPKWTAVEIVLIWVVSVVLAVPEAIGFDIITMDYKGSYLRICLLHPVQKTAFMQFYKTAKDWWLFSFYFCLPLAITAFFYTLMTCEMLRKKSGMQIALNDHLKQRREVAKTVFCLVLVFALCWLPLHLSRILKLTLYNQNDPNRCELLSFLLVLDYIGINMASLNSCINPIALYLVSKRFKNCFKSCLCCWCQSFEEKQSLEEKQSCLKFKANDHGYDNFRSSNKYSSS
# From the text: 1) Endothelin Human Receptor Binding Assay
# [2] = system: ET-1 induced MAPK phosphorylation in MC3T3.E1/J1 cells; test: Inhibition of ET-1 induced MAPK phosphorylation in osteoblast cell line MC3T3.E1/J1 (western blot, densitometry); format: cell-based, mouse; settings: Serum Free Media = 100.00
# Description: The MC3T3. E1/J1 cell line was isolated from a parental cell line, MC3T3-E1 (available from Invitrogen), which had in turn been derived from newborn C57BL/6 mouse calvaria. The MC3T3 E1/J1 line is described as an osteoblastic line. To initiate the experiments described below, MC3T3.E1/J1 cells were plated at a density of 2.4×10^4 cells/well (24 well plates) in serum containing media and incubated for 48 hours. The cells were washed twice in PBS and re-incubated for approximately 17 hours in serum starvation media.
# All media was then removed and the cells lysed and stored at −20° C. for electrophoresis/western blot, which localized phosphorylated MAPK and phosphorylated Akt probing with anti-phospho-p44/42 MAPK (Thr 202/204) and anti-Phospho AKT (Ser 473) antibodies (both commercially available from Cell Signalling Technology). The protein bands were quantitated by densitometry, and plotted as arbitrary densitometry units. Phosphorylated MAPK levels were normalised to total MAPK levels.
# LOVO colon tumour = test: Inhibition of angiogenesis in primary tumours, intradermal LOVO tumour in nude mice; format: in vivo; settings: 5 days, vs vehicle
# From the text: (§1) A 1 cm^2 area with the tumour at the centre was examined and the number of blood vessels bifurcations within that area supplying the tumour were counted.
# DU145 prostate tumour = test: Inhibition of angiogenesis in primary tumours, intradermal DU145 tumour in nude mice; format: in vivo; settings: 5 days, vs vehicle
# From the text: as §1
# endothelin receptors = test: Human forearm blood flow, vasoconstriction in response to infused ET-1; format: in vivo; settings: healthy male subjects, single oral doses 10 mg and 30 mg, 2-4 hours post dosing; p=0.0210; evidence of a dose response
# From the text: Human forearm blood flow can be assessed by temporarily impeding the venous drainage from the arm by the application of a pneumatic cuff on the upper arm, which is then inflated to just above venous pressure. The resulting arterial flow into the arm with no corresponding venous drainage leads to engorgement and swelling of the forearm, which can be detected with sensitive strain gauges. Infusion of the arterial vasoconstrictor ET-1 into the brachial artery leads to a reduction in forearm distension due to decreased arterial inflow. This vasoconstriction is mediated via endothelin receptors on the vascular endothelium and associated smooth muscle.
Compound,mean displacement at the ETB receptor [1] [%],"Phosphorylated MAPK, Average ([2]; ET-1 100 nm + Compound (I) 0.1 μm, normalised to total MAPK)","Phosphorylated MAPK, Average ([2]; ET-1 100 nm + Compound (I) 1 μm, normalised to total MAPK)","Phosphorylated MAPK, Average ([2]; ET-1 100 nm + Compound (I) 10 μm, normalised to total MAPK)","Phosphorylated MAPK, Average ([2]; ET-1 100 nm + Compound (I) 20 μm, normalised to total MAPK)",Inhibition of vessel count (LOVO colon tumour; 25 mg/kg once daily p.o.),"Inhibition of vessel count (LOVO colon tumour; 50 mg/kg once daily p.o., 50 mg/kg)",Inhibition of vessel count (DU145 prostate tumour; 25 mg/kg once daily p.o.),Inhibition of vessel count (DU145 prostate tumour; 50 mg/kg once daily p.o.),forearm blood flow in response to infused ET-1 compared to placebo (endothelin receptors),"Phosphorylated MAPK, Average ([2]; ET-1 100 nm alone, 3 minutes stimulation)"
"COc1nc(C)cnc1NS(=O)(=O)c1cccnc1-c1ccc(-c2nnco2)cc1 [Compound (I), N-(3-methoxy-5-methylpyrazin-2-yl)-2-(4-[1,3,4-oxadiazol-2-yl]phenyl)pyridine-3-sulphonamide]",1.2±0.7,422.11 arbitrary densitometry units,157.41 arbitrary densitometry units,105.15 arbitrary densitometry units,109.18 arbitrary densitometry units,28% (P < 0.001),20% (P = 0.001) and 28% (P < 0.001),38% (P < 0.001),30% (P < 0.05),statistically significant reduction,
"ET-1: endogenous 21 amino acid peptide, endothelin isoform; used as stimulus and radioligand (CSCSSLMDKECVYFCHLDIIW; ends and bridges not checked; cysteine pairing not given here; UniProt P05305 53-73, looked up) [reference compound]",,,,,,,,,,,312.78 arbitrary densitometry units and 369.85 arbitrary densitometry units
